Reference: patent US20140044655A1, “NOVEL ACTIVATOR PEPTIDES FOR SYNTHESIZING EXTRACELLULAR MATRIX PROTEINS, AND COSMETIC COMPOSITIONS INCLUDING SAME” (ISP INVESTMENTS INC., priority 2011, published 2014)
Where no end group is shown, it is not given here.

Key:
Format in all cases: cell-based
collagen I [1] = test: Specific labeling of collagen I in human fibroblast cultures (epifluorescence); conditions: human dermal fibroblasts; peptide 0.5%, 1% and/or 3% (stock solution 40 mg/kg); 24, 48 and/or 72 hours; vs control
Method: (§1) The objective of this study is to determine the influence of the peptides SEQ ID NO: 4 and NO: 5 and the peptide SEQ ID NO: 4 on the expression of the following extracellular matrix proteins: collagen I, collagen III, pro-collagen, fibronectin and hyaluronic acid in human fibroblasts. For this, specific labelings were performed on normal human fibroblast cultures obtained from the dermis.
(§2) Human fibroblasts in culture are treated with the peptide SEQ ID NO: 5 or the peptide SEQ ID NO: 4 at a final concentration of 0.5%, 1% and/or 3% (based on a stock solution at 40 mg/kg), for 24, 48 and/or 72 hours. The cells are then washed, fixed with cold methanol for 4 minutes at 4° C. (for the collagen I, collagen III and hyaluronic acid labelings) or with formaldehyde at 3.7% for 10 minutes at room temperature (for the pro-collagen and fibronectin labelings). The cells are incubated in the presence of a specific rabbit collagen I polyclonal antibody (Rockland, Ref: 600-401-103-0.5), a specific rabbit collagen III polyclonal antibody (Rockland, Ref: 600-401-105-0.5), a specific rat pro-collagen polyclonal antibody (Millipore, Ref: MAB1912), a specific rabbit fibronectin polyclonal antibody (Sigma, Ref: F-3648), then an anti-rabbit secondary antibody coupled with a fluorochrome (Invitrogen, Ref: A21206) or anti-rat coupled with a fluorochrome (Invitrogen, A11006). […]

collagen III [2] = test: Collagen III immunolabeling in human skin samples cultivated ex vivo; conditions: topical 0.5%, 1% or 3% (stock solution 40 mg/kg), 24, 48 and/or 72 hours
Method: (§3) The objective of this study is to determine the influence of the peptide SEQ ID NO: 5 on the expression of the following extracellular matrix proteins: collagen I, collagen III, pro-collagen, fibronectin and hyaluronic acid in the human skin. For this, specific labelings were performed on human skin samples cultivated ex vivo.
(§4) Human skin samples are placed in culture at the air/liquid interface. The peptide SEQ ID NO: 5 is applied topically on the samples at final concentrations of 0.5%, 1% or 3%, (using a stock solution at 40 mg/kg) then the samples are incubated for 24, 48 and/or 72 hours at 37° C.
(§5) These skin samples are then fixed with formaldehyde then embedded in paraffin or fixed and embedded in OCT then frozen at −20° C. Sections with a thickness of 4 μm are then produced (6 μm for cold sections).
(§6) The labelings of the collagen I and the collagen III, on the samples embedded in paraffin, are performed after unmasking specific sites. The immunolabelings are performed using a specific rabbit collagen I polyclonal antibody (Rockland, Ref: 600-401-103-0.5), a specific rabbit collagen III polyclonal antibody (Rockland, Ref: 600-401-105-0.5), then an anti-rabbit secondary antibody coupled with a fluorochrome (Invitrogen, Ref: A21206). […]

hyaluronic acid [3] = test: Specific labeling of hyaluronic acid in human fibroblast cultures (epifluorescence); conditions: human dermal fibroblasts; peptide 0.5%, 1% and/or 3% (stock solution 40 mg/kg); 24, 48 and/or 72 hours; vs control
Method: as §1, §2

P16 = test: Expression of senescence marker P16 in human fibroblasts (immunolabeling); conditions: 0.5% and 1% (stock solution 40 mg/kg), 48 hours
Method: The objective of this study is to determine the influence of the peptide SEQ ID NO: 5 on the expression of P16, a protein of which the expression in the skin increases with age. P16 is a protein involved in the negative regulation of the cellular cycle, which has been described as a reliable marker of cellular senescence (Brookes S. et al. Experimental Cell Research 298, 2004).
Human fibroblasts in culture are treated with the peptide SEQ ID NO: 5 at final concentrations of 0.5% and 1% (using a stock solution at 40 mg/kg) for 48 hours. The cells are prepared according to the Shandon Cytoblock® Cell preparation system kit (Thermo Scientific, Ref: 7401150).
The cells are then fixed with formaldehyde then embedded in paraffin. Sections of 4 μm are then produced. The labeling of p16 on the cells embedded in paraffin is performed after unmasking the specific sites. The immunolabelings are performed using a specific mouse p16 polyclonal antibody (Santa-Cruz, Ref: sc-81157), then an anti-mouse secondary antibody coupled with a fluorochrome (Invitrogen, Ref: A21202). The cells are then examined under the epifluorescence microscope (Nikon Eclipse E600 microscope).

[4] = system: Collagen I messenger RNAs; test: Expression of collagen I messenger RNAs by real-time PCR in human fibroblasts; conditions: 0.5% and 1% (stock solution 40 mg/kg), 24, 48 and 72 hours, comparative Ct method, 18S control
Method: The objective of this study is to determine the influence of the peptide SEQ ID NO: 5 on the expression of collagen I messenger RNAs in the human fibroblasts. For this, the expression of collagen I was studied by real-time PCR.
Human fibroblasts in culture are treated with the peptide SEQ ID NO: 5 at final concentrations of 0.5% and 1% (using a stock solution at 40 mg/kg) for 24, 48 and 72 hours. The total RNAs are extracted using an extraction kit (QIAGEN), then reverse transcribed with a specific kit containing RNase inhibitors (Applied Biosystems). A real-time PCR is performed in a thermocycler using a specific Collagen I TaqMan Gene Expression Assay (Applied Biosystem, […]) and a specific 18S TaqMan Gene Expression Assay used as an endogenous control (Applied Biosystem, […]). The relative quantification of the expression of the Collagen I messenger RNAs is performed by the comparative Ct method (the Ct, the threshold cycle, is the intersection between the amplification curve and the threshold line).

fibronectin = test: Specific labeling of fibronectin in human fibroblast cultures (epifluorescence); conditions: human dermal fibroblasts; peptide 0.5%, 1% and/or 3% (stock solution 40 mg/kg); 24, 48 and/or 72 hours; vs control
Method: as §1, §2

collagen I [5] = test: Collagen I immunolabeling in human skin samples cultivated ex vivo; conditions: topical 0.5%, 1% or 3% (stock solution 40 mg/kg), 24, 48 and/or 72 hours
Method: as §3, §4, §5, §6

[6] = system: senescent fibroblasts (β-galactosidase activity); test: Reversal of senescence induced by FOXO3a siRNA in human fibroblasts (β-galactosidase, X-Gal staining); conditions: human fibroblasts treated with FOXO3a siRNA 25 nM; peptide 1% (stock solution 40 mg/kg); 48 hours
From the text: The objective of this study is to determine the influence of the peptide SEQ ID NO: 5 on senescent fibroblasts, of which the senescence has been induced by the extinction of the FOXO3a gene. These cells overexpress beta-galactosidase, in relation to their senescent state.
FOXO3a is a Forkhead transcription factor involved in cell longevity. In the skin, the negative regulation of FOXO3a accelerates the senescence of normal human fibroblasts (Hyun Kyoung K. et al. J. of Gerontol., 2005, vol. 60A n° 1, pages 4-9). This property was used to advantage to induce senescence in human fibroblasts by blocking FOXO3a expression by a specific interfering RNA (siRNA).
Human fibroblasts in culture are rendered senescent by treatment with a specific siRNA of FOXO3a at a final concentration of 25 nM using the Lipofectamine™ RNAiMAX (Invitrogen, Ref: 13778-075) transfection technique. Untreated controls are produced. The fibroblasts are treated in parallel by the peptide SEQ ID NO: 5 at a final concentration of 1% (using a stock solution at 40 mg/kg) for 48 hours.
The cells are rinsed and fixed in a fixation buffer (0.2% glutaraldehyde, 2% formaldehyde). The cells are then incubated at 37° C. without CO2 for 24 hours with an X-Gal solution at 1 mg/mL in 40 mM of citric acid/phosphate (pH 6), 5 mM K3FeCN6, 5 mM K4FeCN6, 150 mM NaCl and 2 mM MgCl2. […]

pro-collagen [7] = test: Specific labeling of pro-collagen in human fibroblast cultures (epifluorescence); conditions: human dermal fibroblasts; peptide 0.5%, 1% and/or 3% (stock solution 40 mg/kg); 24, 48 and/or 72 hours; vs control
Method: as §1, §2

hyaluronic acid [8] = test: Hyaluronic acid labeling in human skin samples cultivated ex vivo; conditions: topical 0.5%, 1% or 3% (stock solution 40 mg/kg), 24, 48 and/or 72 hours
Method: as §3, §4, §5, §6

collagen III [9] = test: Specific labeling of collagen III in human fibroblast cultures (epifluorescence); conditions: human dermal fibroblasts; peptide 0.5%, 1% and/or 3% (stock solution 40 mg/kg); 24, 48 and/or 72 hours; vs control
Method: as §1, §2

pro-collagen [10] = test: Pro-collagen immunolabeling in human skin samples cultivated ex vivo; conditions: topical 0.5%, 1% or 3% (stock solution 40 mg/kg), 24, 48 and/or 72 hours
Method: as §3, §4, §5
The immunolabeling of the pro-collagen, on the samples embedded in OCT, is performed after fixing for 10 minutes with cold acetone. The immunolabeling is performed using a specific rat pro-collagen polyclonal antibody (Millipore, Ref: MAB 1912) then an anti-rat secondary antibody, coupled with a fluorescent marker (Invitrogen, A11006).
The cells are then examined under the epifluorescence microscope (Nikon Eclipse E600 microscope).

Row | Substance | expression of collagen I (collagen I [1]) | expression of collagen III in the dermis (collagen III [2]) | expression of hyaluronic acid (hyaluronic acid [3]) | p16 immunolabeling, nuclear fluorescence (expression of the p16 senescence marker) (P16) | expression of Collagen I messenger RNAs [4] | expression of fibronectin (fibronectin) | expression of collagen I in the dermis (collagen I [5]) | β-galactosidase activity (number of cells stained blue) [6] | expression of pro-collagen (pro-collagen [7]) | expression of hyaluronic acid in the human dermis (hyaluronic acid [8]; dermis) | expression of hyaluronic acid in the human epidermis (hyaluronic acid [8]; epidermis) | expression of collagen III (collagen III [9]) | expression of pro-collagen in the dermis (pro-collagen [10])
1 | Gly-Pro-Ala-Gly-Pro-NH2 (GPAGP-NH2) [SEQ ID NO: 5] | stimulate the expression | stimulates the expression | stimulate the expression | less intense nuclear fluorescence | stimulates the expression | stimulate the expression | stimulates the expression | decrease in the β-galactosidase activity | stimulate the expression | stimulates the expression | stimulates the expression | stimulate the expression | stimulates the expression
2 | Gly-Pro-Ala-Gly-Pro (GPAGP) [SEQ ID NO: 4] | stimulate the expression | – | stimulate the expression | – | – | stimulate the expression | – | – | stimulate the expression | – | – | stimulate the expression | –
